Data from patent US9211310B2, “Use of a Chinese medicine composition in preparing medicaments for treating secondary prevention of myocardial infarction” (TASLY PHARMACEUTICAL GROUP CO., LTD, priority 2010, dated 2015).

Test system: patients after acute myocardial infarction
Assay: TCM symptom score, total and single (chest pain, chest tightness, short breath, fatigue, palpitation, spontaneous perspiration, pale complexion), same clinical trial
Assay type: in vivo, human
Parameters: total score of TCM symptom, Mean / total score of TCM symptom, Min / total score of TCM symptom, Max / total score of TCM symptom, Md / change of total score of TCM symptom, Mean / change of total score of TCM symptom, Max / change of total score of TCM symptom, Md: scale not given here
Details: PP
Source text: 3508 patients who were in accordance with the diagnostic standards of AMI for 28 days to 2 years and differentiated as Qi deficiency and blood stagnation syndrome by TCM were studied. 0.5 g Chinese medicine composition prepared by the method of EXAMPLE 1 (Coded as QSYQ) was administrated half an hour after meal, 3 times per day.
They included the overall survival time, angina pectoris score, TCM symptom score and life quality score, where angina pectoris score, TCM symptom score and life quality score were evaluated at randomization, in 1st, 3rd, 6th, 9th, 12th month after treatment and 18th month after follow-up.
The analysis method referred to the angina pectoris score.

[1] = 3 months after treatment-baseline
[2] = 6 months after treatment-baseline

## CC(=O)Oc1ccccc1C(=O)O [Control group, aspirine]
[1]
  change of short breath 2, number of patients: 309
  change of short breath 4, % of patients: (2.36%)
  change of short breath 4, number of patients: 34
  change of short breath 6, % of patients: (0.55%)
  change of short breath 6, number of patients: 8
  change of short breath −2, % of patients: (5.27%)
  change of short breath −2, number of patients: 76
  change of short breath −4, % of patients: (0.14%)
  change of short breath −4, number of patients: 2
  change of short breath −6, % of patients: (0.00%)
  change of short breath −6, number of patients: 0
  change of spontaneous perspiration 0, number of patients: 898
  change of spontaneous perspiration 0, percent of patients: (62.23%)
  change of spontaneous perspiration 1, number of patients: 342
  change of spontaneous perspiration 1, percent of patients: (23.70%)
  change of spontaneous perspiration 2, number of patients: 71
  change of spontaneous perspiration 2, percent of patients: (4.92%)
  change of spontaneous perspiration 3, number of patients: 16
  change of spontaneous perspiration 3, percent of patients: (1.11%)
  change of spontaneous perspiration −1, number of patients: 101
  change of spontaneous perspiration −1, percent of patients: (7.00%)
  change of spontaneous perspiration −2, number of patients: 13
  change of spontaneous perspiration −2, percent of patients: (0.90%)
  change of spontaneous perspiration −3, number of patients: 2
  change of spontaneous perspiration −3, percent of patients: (0.14%)
6 months after treatment
  distribution of total score of TCM symptom: Medium, number of patients: 377
  distribution of total score of TCM symptom: Medium, percentage of patients: (26.40%)
  distribution of total score of TCM symptom: Mild, number of patients: 1044
  distribution of total score of TCM symptom: Mild, percentage of patients: (73.11%)
  distribution of total score of TCM symptom: Severe, number of patients: 7
  distribution of total score of TCM symptom: Severe, percentage of patients: (0.49%)
  fatigue score 0, % of patients: (31.00%)
  fatigue score 0, number of patients: 443
  fatigue score 2, % of patients: (61.65%)
  fatigue score 2, number of patients: 881
  fatigue score 4, % of patients: (6.79%)
  fatigue score 4, number of patients: 97
  fatigue score 6, % of patients: (0.56%)
  fatigue score 6, number of patients: 8
  pale complexion score 0, number of patients: 750
  pale complexion score 0, percent of patients: (52.48%)
  pale complexion score 1, number of patients: 540
  pale complexion score 1, percent of patients: (37.79%)
  pale complexion score 2, number of patients: 133
  pale complexion score 2, percent of patients: (9.31%)
  pale complexion score 3, number of patients: 6
  pale complexion score 3, percent of patients: (0.42%)
  palpitation score 0, number of patients: 456
  palpitation score 0, percent of patients: (31.91%)
  palpitation score 2, number of patients: 764
  palpitation score 2, percent of patients: (53.46%)
  palpitation score 4, number of patients: 192
  palpitation score 4, percent of patients: (13.44%)
  palpitation score 6, number of patients: 17
  palpitation score 6, percent of patients: (1.19%)
  short breath score 0, % of patients: (25.21%)
  short breath score 0, number of patients: 360
  short breath score 2, % of patients: (0.07%)
  short breath score 2, number of patients: 1
  short breath score 3, % of patients: (58.68%)
  short breath score 3, number of patients: 838
  short breath score 6, % of patients: (15.55%)
  short breath score 6, number of patients: 222
  short breath score 9, % of patients: (0.49%)
  short breath score 9, number of patients: 7
  spontaneous perspiration score 0, number of patients: 628
  spontaneous perspiration score 0, percent of patients: (43.98%)
  spontaneous perspiration score 1, number of patients: 676
  spontaneous perspiration score 1, percent of patients: (47.34%)
  spontaneous perspiration score 2, number of patients: 117
  spontaneous perspiration score 2, percent of patients: (8.19%)
  spontaneous perspiration score 3, number of patients: 7
  spontaneous perspiration score 3, percent of patients: (0.49%)
  total score of TCM symptom, Max: 34.00
  total score of TCM symptom, Md: 9.00
  total score of TCM symptom, Mean: 9.79
  total score of TCM symptom, Min: 0.00
[2]
  change of fatigue 0, % of patients: (55.47%)
  change of fatigue 0, number of patients: 791
  change of fatigue 2, % of patients: (30.01%)
  change of fatigue 2, number of patients: 428
  change of fatigue 4, % of patients: (6.80%)
  change of fatigue 4, number of patients: 97
  change of fatigue 6, % of patients: (1.12%)
  change of fatigue 6, number of patients: 16
  change of fatigue −2, % of patients: (6.03%)
  change of fatigue −2, number of patients: 86
  change of fatigue −4, % of patients: (0.56%)
  change of fatigue −4, number of patients: 8
  change of fatigue −6, % of patients: (0.00%)
  change of fatigue −6, number of patients: 0
  change of pale complexion 0, number of patients: 1104
  change of pale complexion 0, percent of patients: (77.47%)
  change of pale complexion 1, number of patients: 272
  change of pale complexion 1, percent of patients: (19.09%)
  change of pale complexion −1, number of patients: 49
  change of pale complexion −1, percent of patients: (3.44%)
  change of palpitation 0, number of patients: 842
  change of palpitation 0, percent of patients: (59.09%)
  change of palpitation 1, number of patients: 431
  change of palpitation 1, percent of patients: (30.25%)
  change of palpitation 2, number of patients: 53
  change of palpitation 2, percent of patients: (3.72%)
  change of palpitation 3, number of patients: 7
  change of palpitation 3, percent of patients: (0.49%)
  change of palpitation −1, number of patients: 88
  change of palpitation −1, percent of patients: (6.18%)
  change of palpitation −2, number of patients: 4
  change of palpitation −2, percent of patients: (0.28%)
  change of short breath 0, % of patients: (63.53%)
  change of short breath 0, number of patients: 906
  change of short breath 2, % of patients: (27.14%)
  change of short breath 2, number of patients: 387
  change of short breath 4, % of patients: (3.16%)
  change of short breath 4, number of patients: 45
  change of short breath 6, % of patients: (0.56%)
  change of short breath 6, number of patients: 8
  change of short breath −2, % of patients: (5.33%)
  change of short breath −2, number of patients: 76
  change of short breath −4, % of patients: (0.14%)
  change of short breath −4, number of patients: 2
  change of short breath −6, % of patients: (0.14%)
  change of short breath −6, number of patients: 2
